Experimental findings from patent publication US20220226323A1, “ALDOSE REDUCTASE INHIBITORS FOR TREATMENT OF PHOSPHOMANNOMUTASE 2 DEFICIENCY” (Applied Therapeutics, Inc., priority 2019, published 2022) are described below.

The nature of series [1]: CNS penetration (statement).
For the next series, the system named is PMM2. Put plainly: PMM2 enzyme activity in PMM2-CDG patient-derived fibroblasts. It counts as cell-based, human. Conditions: 50 nM, 24 hours; four PMM2-CDG patient-derived fibroblast lines; vs DMSO-treated mutant cell line. On the procedure:
Cells were seeded in a 96-well plate, homogenization buffer (20 mM HEPES, 25 mM KCl, 1 mM DTT, 10 μg/ml leupeptin, 10 μg/ml antipain) was added and plates were freeze-thawed at —80° C. twice to lyse cells. Reaction buffer (50 mM HEPES, 5 mM MgCl2, 0.5 mM NADP+, 10 μg/ml yeast glucose-6-phosphate dehydrogenase, 10 μM glucose-1,6-bisphosphate, 10 μg/ml phosphoglucoisomerase, 5.25 μg/ml phosphomannoseisomerase) containing 200 μM mannose-1-phosphate as substrate was then added to the wells of each plate. Plates were incubated at 37° C. for 270 min and absorbance was read at 340 nm at 30, 60, 90, 120, 150, 180, 210, 240 and 270 min by removing the plate from incubation at the respective time points. All incubations were carried out with or without substrate (mannose-1-phosphate) and the difference between the two values was calculated as the enzymatic activity. Enzyme activity was normalized to total lysate protein levels. Enzyme activities of fibroblasts in the absence of an AR inhibitor were determined. […] Following this, enzyme activity was assessed as described above. […] For ease of analysis, the enzyme activity (as represented by NADPH concentration) of each treatment condition was compared with the activity of a baseline, untreated mutant cell line at the last time point.

For the compound `O=C(O)Cc1nn(Cc2nc3cc(C(F)(F)F)ccc3s2)c(=O)c2cscc12` [Compound B], the CNS penetration entry in series [1] is “CNS penetrant”. Also, the “PMM2 enzyme activity in patient-derived fibroblast cell lines” value in the series with PMM2 is reported as “increased PMM2 enzyme activity in each of the four patient-derived cell lines tested”.
